Assay results from US20230271950A1, “ANTIBACTERIAL PICOLINAMIDE COMPOUNDS” (University of Notre Dame Du Lac, priority 2020, published 2023).
≈ marks a conversion by molar mass, not a printed value. Where two headings read alike, the source gives them in different places.

Tests used:
[1] = system: E. faecium NCTC7171; assay: MIC against E. faecium; format: cell-based, Enterococcus faecium; details: E. faecium NCTC 7171; for MIC: Enterococcus faecium, NCTC7171, Table 10, unit inferred, read-out: Activity (MIC) against E. faecium
[2] = system: C. difficile; assay: MIC by broth microdilution against C. difficile strains; format: cell-based, Clostridioides difficile; details: for MIC: Clostridioides difficile, ATCC43255, ATCC 43255, ribotype 087, read-out: MIC C. difficile; for Selectivity: MIC MRSA/MIC C. difficile, Table 3
[3] = system: MRSA (NRS70, NRS119); assay: MIC against MRSA strains; format: cell-based, Staphylococcus aureus; details: NRS70 strain; for MIC: Staphylococcus aureus, read-out: MIC MRSA
[4] = system: S. aureus ATCC29213; assay: MIC against MSSA; format: cell-based, Staphylococcus aureus; details: MSSA ATCC 29213; for MIC: Staphylococcus aureus, Table 10, unit inferred, read-out: Activity (MIC) against S. aureus

SMILES	MIC [1] [µg/mL]	MIC [4] [µg/mL]	MIC ([2]; Table 3 (SAR^2 and SAR^3)) [µg/mL]	MIC ([3]; Table 3 (SAR^2 and SAR^3)) [µg/mL]	Selectivity [2]	other results
Cc1coc(NC(=O)c2ccnc(-c3ccc(Cl)c(Cl)c3)c2)n1 [Compound 14, 2-(3,4-Dichlorophenyl)-N-(4-methyloxazol-2-yl)isonicotinamide]	0.25 (≈ 0.718 µM)	0.06 (≈ 0.172 µM)				MIC ([2]; Table 2 (SAR^1)): 0.25 µg/mL (≈ 0.718 µM); MIC ([3]; Table 2 (SAR^1)): 0.06 µg/mL (≈ 0.172 µM)
O=C(Nc1nc2ccccc2o1)c1ccnc(-c2ccc(Cl)c(Cl)c2)c1 [Compound 21, N-(benzo[d]oxazol-2-yl)-2-(3,4-dichlorophenyl)isonicotinamide]	16 (≈ 41.6 µM)	16 (≈ 41.6 µM)				MIC ([2]; Table 2 (SAR^1)): 1 µg/mL (≈ 2.6 µM); MIC ([3]; Table 2 (SAR^1)): 1 µg/mL (≈ 2.6 µM)
CN(C)C(=O)c1cnc(NC(=O)c2ccnc(-c3ccc(Cl)c(Cl)c3)c2)o1 [Compound 28, (2-(3,4-Dichlorophenyl)isonicotinamido)-N,N-dimethyloxazole-5-carboxamide]						Activity (MIC) against E. faecium ([1]; Table 10, unit not given): 8; MIC C. difficile ([2]; ATCC 43255, ribotype 087, Table 2 (SAR^1)): 0.5 µg/mL (≈ 1.23 µM); MIC MRSA ([3]; Table 2 (SAR^1)): 4 µg/mL (≈ 9.87 µM); Activity (MIC) against S. aureus ([4]; Table 10, unit not given): 2
O=C(Nc1ncco1)c1cccc(-c2ccc(Cl)c(Cl)c2)n1 [Compound 75, 6-(3,4-Dichlorophenyl)-N-(oxazol-2-yl)picolinamide]			≥ 16	2 (≈ 5.99 µM)	≤ 0.125	
O=C(Nc1ncco1)c1cccc(-c2cccc(Cl)c2)n1 [Compound 76, 6-(3-Chlorophenyl)-N-(oxazol-2-yl)picolinamide]			8 (≈ 26.7 µM)	4 (≈ 13.3 µM)	0.5	
O=C(Nc1ncco1)c1cccc(-c2ccc(F)c(Cl)c2)n1 [Compound 77, 6-(3-Chloro-4-fluorophenyl)-N-(oxazol-2-yl)picolinamide]			8 (≈ 25.2 µM)	8 (≈ 25.2 µM)	1	
O=C(Nc1ncco1)c1cccc(-c2ccc(Cl)c(F)c2)n1 [Compound 78, 6-(4-Chloro-3-fluorophenyl)-N-(oxazol-2-yl)picolinamide]			≥ 16	128 (≈ 403 µM)	≤ 8	
O=C(Nc1ncco1)c1cccc(-c2ccc(F)cc2)n1 [Compound 79, 6-(4-Fluorophenyl)-N-(oxazol-2-yl)picolinamide]			≥ 16	32 (≈ 113 µM)	≤ 2	
O=C(Nc1ncco1)c1cccc(-c2ccc(F)c(F)c2)n1 [Compound 80, 6-(3,4-Difluorophenyl)-N-(oxazol-2-yl)picolinamide]			≥ 16	64 (≈ 212 µM)	≤ 4	
O=C(Nc1ncco1)c1ccnc(-c2cccc(Cl)c2)n1 [Compound 84, 2-(3-Chlorophenyl)-N-(oxazol-2-yl)pyrimidine-4-carboxamide]			4 (≈ 13.3 µM)	4 (≈ 13.3 µM)	1	
O=C(Nc1ncco1)c1cncc(-c2ccc(Cl)c(Cl)c2)n1 [Compound 86, 6-(3,4-Dichlorophenyl)-N-(oxazol-2-yl)pyrazine-2-carboxamide]			8 (≈ 23.9 µM)	4 (≈ 11.9 µM)	0.5	
O=C(Nc1ncco1)c1cc(-c2ccc(Cl)cc2)ccn1 [Compound 88, 4-(4-Chlorophenyl)-N-(oxazol-2-yl)picolinamide]			4 (≈ 13.3 µM)	128 (≈ 427 µM)	32	
O=C(Nc1ncco1)c1ccnc(Oc2cccc(Cl)c2)c1 [Compound 100, 2-(3-Chlorophenoxy)-N-(oxazol-2-yl)isonicotinamide]	2 (≈ 6.33 µM)	1 (≈ 3.17 µM)				
O=C(Nc1ncco1)c1ccnc(Oc2ccc(F)c(Cl)c2)c1 [Compound 101, 2-(3-Chloro-4-fluorophenoxy)-N-(oxazol-2-yl)isonicotinamide]	2 (≈ 5.99 µM)	1 (≈ 3 µM)				
O=C(Nc1ncco1)c1ccnc(Oc2ccc(Cl)c(F)c2)c1 [Compound 102, 2-(4-Chloro-3-fluorophenoxy)-N-(oxazol-2-yl)isonicotinamide]	2 (≈ 5.99 µM)	1 (≈ 3 µM)				
O=C(Nc1ncco1)c1ccnc(Oc2cccc(C(F)(F)F)c2)c1 [Compound 103, N-(Oxazol-2-yl)-2-(3-(trifluoromethyl)phenoxy)isonicotinamide]	1 (≈ 2.86 µM)	1 (≈ 2.86 µM)				
O=C(Nc1ncco1)c1ccnc(Oc2ccc(OC(F)(F)F)cc2)c1 [Compound 104, N-(Oxazol-2-yl)-2-(4-(trifluoromethoxy)phenoxy)isonicotinamide]	16 (≈ 43.8 µM)	1 (≈ 2.74 µM)				
O=C(Nc1ncco1)c1ccnc(Oc2cccc(OC(F)(F)F)c2)c1 [Compound 105, N-(Oxazol-2-yl)-2-(3-(trifluoromethoxy)phenoxy)isonicotinamide]	16 (≈ 43.8 µM)	1 (≈ 2.74 µM)				
C#CCCCCCOC(=O)c1ccc2oc(NC(=O)c3cc(Oc4ccc(F)c(F)c4)ccn3)nc2c1 [Compound 117, Hept-6-yn-1-yl 2-(4-(3,4-difluorophenoxy)picolinamido)benzo[d]oxazole-5-carboxylate]	128 (≈ 253 µM)	32 (≈ 63.3 µM)				

Second part, led by results:

MIC [1] [µg/mL]	MIC [4] [µg/mL]	MIC ([2]; Table 3 (SAR^2 and SAR^3)) [µg/mL]	MIC ([3]; Table 3 (SAR^2 and SAR^3)) [µg/mL]	SMILES	Selectivity [2]	other results
2 (≈ 6.67 µM)	1 (≈ 3.34 µM)	0.5 (≈ 1.67 µM)	1 (≈ 3.34 µM)	O=C(Nc1ncco1)c1ccnc(-c2ccc(Cl)cc2)c1 [Compound 32, 2-(4-Chlorophenyl)-N-(oxazol-2-yl)isonicotinamide]	2	
1 (≈ 3.34 µM)	0.5 (≈ 1.67 µM)	0.5 (≈ 1.67 µM)	0.25 (≈ 0.834 µM)	O=C(Nc1ncco1)c1ccnc(-c2cccc(Cl)c2)c1 [Compound 33, 2-(3-Chlorophenyl)-N-(oxazol-2-yl)isonicotinamide]	0.5	
1 (≈ 3.32 µM)	4 (≈ 13.3 µM)	1 (≈ 3.32 µM)	2 (≈ 6.64 µM)	O=C(Nc1ncco1)c1ccnc(-c2ccc(F)c(F)c2)c1 [Compound 35, 2-(3,4-Difluorophenyl)-N-(oxazol-2-yl)isonicotinamide]	2	
8 (≈ 28.2 µM)	4 (≈ 14.1 µM)	2 (≈ 7.06 µM)	4 (≈ 14.1 µM)	O=C(Nc1ncco1)c1ccnc(-c2ccc(F)cc2)c1 [Compound 36, 2-(4-Fluorophenyl)-N-(oxazol-2-yl)isonicotinamide]	2	
4 (≈ 14.1 µM)	2 (≈ 7.06 µM)	1 (≈ 3.53 µM)	2 (≈ 7.06 µM)	O=C(Nc1ncco1)c1ccnc(-c2cccc(F)c2)c1 [Compound 37, 2-(3-Fluorophenyl)-N-(oxazol-2-yl)isonicotinamide]	2	
0.5 (≈ 1.57 µM)	0.25 (≈ 0.787 µM)	0.125 (≈ 0.393 µM)	0.0625 (≈ 0.197 µM)	O=C(Nc1ncco1)c1ccnc(-c2ccc(Cl)c(F)c2)c1 [Compound 39, 2-(4-Chloro-3-fluorophenyl)-N-(oxazol-2-yl)isonicotinamide]	0.5	
		2 (≈ 6.26 µM)	4 (≈ 12.5 µM)	O=C(Nc1ncco1)c1ccnc(-c2ccc(F)c(F)c2)c1F [Compound 68, 2-(3,4-Difluorophenyl)-3-fluoro-N-(oxazol-2-yl)isonicotinamide]	2	
		1 (≈ 3.15 µM)	2 (≈ 6.3 µM)	O=C(Nc1ncco1)c1ccnc(-c2cccc(Cl)c2)c1F [Compound 69, 2-(3-Chlorophenyl)-3-fluoro-N-(oxazol-2-yl)isonicotinamide]	2	
		0.5 (≈ 1.57 µM)	4 (≈ 12.5 µM)	O=C(Nc1ncco1)c1cc(-c2ccc(F)c(F)c2)ncc1F [Compound 72, 2-(3,4-Difluorophenyl)-5-fluoro-N-(oxazol-2-yl)isonicotinamide]	8	
		0.5 (≈ 1.49 µM)	2 (≈ 5.96 µM)	O=C(Nc1ncco1)c1cc(-c2ccc(F)c(Cl)c2)ncc1F [Compound 73, 2-(3-Chloro-4-fluorophenyl)-5-fluoro-N-(oxazol-2-yl)isonicotinamide]	4	
		0.25 (≈ 0.745 µM)	2 (≈ 5.96 µM)	O=C(Nc1ncco1)c1cc(-c2ccc(Cl)c(F)c2)ncc1F [Compound 74, 2-(4-Chloro-3-fluorophenyl)-5-fluoro-N-(oxazol-2-yl)isonicotinamide]	8	
		2 (≈ 6.3 µM)	8 (≈ 25.2 µM)	O=C(Nc1ncco1)c1cncc(-c2ccc(F)c(Cl)c2)c1 [Compound 81, 5-(3-Chloro-4-fluorophenyl)-N-(oxazol-2-yl)nicotinamide]	4	
		4 (≈ 13.3 µM)	8 (≈ 26.6 µM)	O=C(Nc1ncco1)c1cncc(-c2ccc(F)c(F)c2)c1 [Compound 82, 5-(3,4-Difluorophenyl)-N-(oxazol-2-yl)nicotinamide]	2	
		1 (≈ 2.98 µM)	0.5 (≈ 1.49 µM)	O=C(Nc1ncco1)c1ccnc(-c2ccc(Cl)c(Cl)c2)n1 [Compound 83, 2-(3,4-Dichlorophenyl)-N-(oxazol-2-yl)pyrimidine-4-carboxamide]	0.5	
		2 (≈ 5.98 µM)	2 (≈ 5.98 µM)	O=C(Nc1ncco1)c1ccnc(-c2cccc(C(F)(F)F)c2)n1 [Compound 85, N-(Oxazol-2-yl)-2-(3-(trifluoromethyl)phenyl)pyrimidine-4-carboxamide]	1	
		0.25 (≈ 0.716 µM)	128 (≈ 366 µM)	O=C(Nc1ncco1)c1cc(-c2ccc(OC(F)(F)F)cc2)ccn1 [Compound 95, N-(Oxazol-2-yl)-4-(4-(trifluoromethoxy)phenyl)picolinamide]	512	
		0.5 (≈ 1.43 µM)	≥ 256	O=C(Nc1ncco1)c1cc(-c2cccc(OC(F)(F)F)c2)ccn1 [Compound 96, N-(Oxazol-2-yl)-4-(3-(trifluoromethoxy)phenyl)picolinamide]	≥512	
